Test results as given in US20250101017A1, “SALT CRYSTAL FORM AND FREE BASE CRYSTAL FORM OF KINASE INHIBITOR” (CYTOSINLAB THERAPEUTICS CO., LTD., priority 2022, published 2025).
Values after ≈ are worked out from the molar mass of the structure shown. Like-named read-outs stand apart in the source and are kept apart here.

Legend:
[1] = Solubility at 37° C. in buffer solutions with different pH (about 10 mg in 1 ml, 2 h and 24 h); filtrate concentration and pH, XRPD of remaining solid; assay type: physicochemical; details: for solubility at 2 h / solubility at 24 h: 37 °C, thermodynamic from solid; for solubility at 2 h: read-out: Solubility at 37° C. (mg/ml) 2 h; for solubility at 24 h: read-out: Solubility at 37° C. (mg/ml) 24 h
Procedure: Approximately 10 mg of malate crystal form VII-A and free base Form A were weighed separately, and 1 ml of buffer solutions with different pH were added to make the solution supersaturated, and the mixtures were stirred at 37° C. for 2 h and 24 hours. The samples were filtered, and the filtrates were measured to determine the concentration and pH value, and the remaining solid was subjected to XRPD determination. The specific results were as follows: […]

[2] = Dynamic moisture adsorption (DVS), hygroscopicity; assay type: physicochemical; details: DVS; for moisture absorption weight gain: 80% RH humidity
Procedure: DSV pattern determination method: Dynamic moisture adsorption was performed using Intrinsic DVS. In step mode, the sample is subjected to loop testing at a relative humidity of 0-90%. The sample is analyzed at 10% RH. The dm/dt is set to 0.002 to achieve equilibrium between the sample and the room environment.
Approximately 250 mg of API was weighed and added into a 4 ml glass vial, and 2.5 ml of ethyl acetate was added. The mixture was stirred overnight under magnetic stirring at 50° C., cooled to room temperature, and then filtered, and the obtained solid was dried in vacuum overnight in a 50° C. oven. The resulting solid was free base crystal form Form B. The free base crystal form Form B was subjected to various characterization.

CCc1nc2c(N)ncc(-c3ccc(N4CCC(N5CCN(CC)CC5)CC4)c(OC)c3)c2nc1NC1CCOCC1 [Free base Form A, 3-ethyl-8-(4-(4-(4-ethylpiperazin-1-yl)piperidin-1-yl)-3-methoxyphenyl)-N2-(tetrahydro-2H-pyran-4-yl) pyridino [3,4-b]pyrazine-2,5-diamine]
pH (24 h) ([1]; filtrate, medium FaSSIF): 5.434
pH (24 h) ([1]; filtrate, medium FeSSIF): 4.992
pH (24 h) ([1]; filtrate, medium H2O): 4.607
pH (24 h) ([1]; filtrate, medium SGF): 1.494
pH (24 h) ([1]; filtrate, medium pH 1.2): 1.463
pH (24 h) ([1]; filtrate, medium pH 3.0): 3.683
pH (24 h) ([1]; filtrate, medium pH 4.5): 4.520
pH (24 h) ([1]; filtrate, medium pH 6.8): 6.180
pH (24 h) ([1]; filtrate, medium pH 7.4): 6.664
Solubility at 37° C. (mg/ml) 2 h ([1]; medium FaSSIF, 2 h): 1.234 mg/mL (≈ 2150 µM)
Solubility at 37° C. ([1]; medium FaSSIF, 2 h, listed as API): 1234 µg/mL (≈ 2150 µM)
Solubility at 37° C. (mg/ml) 24 h ([1]; medium FaSSIF, 24 h): 0.983 mg/mL (≈ 1710 µM)
Solubility at 37° C. ([1]; medium FaSSIF, 24 h, listed as API): 983 µg/mL (≈ 1710 µM)
Crystal form ([1]; medium FaSSIF, XRPD of remaining solid, listed as API): Form A
pH (24 h) ([1]; medium FaSSIF, filtrate, 37° C., listed as API): 5.434
Solubility at 37° C. ([1]; medium FeSSIF, 2 h): >10000 µg/mL
Solubility at 37° C. (mg/ml) 2 h ([1]; medium FeSSIF, 2 h): >10 mg/mL
Solubility at 37° C. ([1]; medium FeSSIF, 24 h): >10000 µg/mL
Solubility at 37° C. (mg/ml) 24 h ([1]; medium FeSSIF, 24 h): >10 mg/mL
pH (24 h) ([1]; medium FeSSIF, filtrate, 37° C., listed as API): 4.992
Solubility at 37° C. (mg/ml) 2 h ([1]; medium H2O, 2 h): 0.0365 mg/mL (≈ 63.5 µM)
Solubility at 37° C. ([1]; medium H2O, 2 h, listed as API): 36.5 µg/mL (≈ 63.5 µM)
Solubility at 37° C. (mg/ml) 24 h ([1]; medium H2O, 24 h): 0.0046 mg/mL (≈ 8 µM)
Solubility at 37° C. ([1]; medium H2O, 24 h, listed as API): 4.6 µg/mL (≈ 8 µM)
Crystal form ([1]; medium H2O, XRPD of remaining solid, listed as API): Form A
pH (24 h) ([1]; medium H2O, filtrate, 37° C., listed as API): 4.607
Solubility at 37° C. ([1]; medium SGF, 2 h): >10000 µg/mL
Solubility at 37° C. (mg/ml) 2 h ([1]; medium SGF, 2 h): >10 mg/mL
Solubility at 37° C. ([1]; medium SGF, 24 h): >10000 µg/mL
Solubility at 37° C. (mg/ml) 24 h ([1]; medium SGF, 24 h): >10 mg/mL
pH (24 h) ([1]; medium SGF, filtrate, 37° C., listed as API): 1.494
pH (24 h) ([1]; medium pH 1.2, filtrate, 37° C., listed as API): 1.463
pH (24 h) ([1]; medium pH 3.0, filtrate, 37° C., listed as API): 3.683
pH (24 h) ([1]; medium pH 4.5, filtrate, 37° C., listed as API): 4.520
Solubility at 37° C. (mg/ml) 2 h ([1]; medium pH 6.8, 2 h): 0.294 mg/mL (≈ 512 µM)
Solubility at 37° C. ([1]; medium pH 6.8, 2 h, listed as API): 294 µg/mL (≈ 512 µM)
Solubility at 37° C. (mg/ml) 24 h ([1]; medium pH 6.8, 24 h): 0.271 mg/mL (≈ 471 µM)
Solubility at 37° C. ([1]; medium pH 6.8, 24 h, listed as API): 271 µg/mL (≈ 471 µM)
Crystal form ([1]; medium pH 6.8, XRPD of remaining solid, listed as API): Form A
pH (24 h) ([1]; medium pH 6.8, filtrate, 37° C., listed as API): 6.180
Solubility at 37° C. (mg/ml) 2 h ([1]; medium pH 7.4, 2 h): 0.012 mg/mL (≈ 20.9 µM)
Solubility at 37° C. ([1]; medium pH 7.4, 2 h, listed as API): 12 µg/mL (≈ 20.9 µM)
Solubility at 37° C. (mg/ml) 24 h ([1]; medium pH 7.4, 24 h): 0.016 mg/mL (≈ 27.8 µM)
Solubility at 37° C. ([1]; medium pH 7.4, 24 h, listed as API): 16 µg/mL (≈ 27.8 µM)
Crystal form ([1]; medium pH 7.4, XRPD of remaining solid, listed as API): Form A
pH (24 h) ([1]; medium pH 7.4, filtrate, 37° C., listed as API): 6.664
solubility at 2 h ([1]; pH 1.2 buffer solution, pH 1.2, simulated gastric fluid, medium pH 1.2, 2 h): > 10 mg/mL
solubility at 24 h ([1]; pH 1.2 buffer solution, pH 1.2, simulated gastric fluid, medium pH 1.2, 24 h): > 10 mg/mL
solubility at 2 h ([1]; pH 3.0 buffer solution, pH 3, aqueous buffer, medium pH 3.0, 2 h): > 10 mg/mL
solubility at 24 h ([1]; pH 3.0 buffer solution, pH 3, aqueous buffer, medium pH 3.0, 24 h): > 10 mg/mL
Crystal form ([1]; remaining solid, medium FaSSIF, XRPD): Free base
Crystal form ([1]; remaining solid, medium H2O, XRPD): Free base
Crystal form ([1]; remaining solid, medium pH 6.8, XRPD): Free base
Crystal form ([1]; remaining solid, medium pH 7.4, XRPD): Free base
moisture absorption weight gain [2]: 1.05%
moisture absorption weight gain ([2]; listed as API): 11.12%
hygroscopicity [2]: slight hygroscopicity
